Several values for one entry are separate records, joined by “and”; a condition that tells them apart may be missing. Equal entries are not always repeated. Structures can show the parent of a compound that is named as a salt. Where two headings read alike, the source gives them in different places.
Tests used:
[1] = biological target: T1, wild type human RORγt ligand binding domain (RORyt LBD) (Homo sapiens, UniProt P51449); assay: RORγt ThermoFluor assay (thermal shift, binding affinity KD)
T1 construct: His-tag (N); TurboTEV protease cleavage site (ENLYFQG) (N); made in house; host or cells: E. coli (pHIS1, modified pET vector)
T1 sequence (P51449 258-518): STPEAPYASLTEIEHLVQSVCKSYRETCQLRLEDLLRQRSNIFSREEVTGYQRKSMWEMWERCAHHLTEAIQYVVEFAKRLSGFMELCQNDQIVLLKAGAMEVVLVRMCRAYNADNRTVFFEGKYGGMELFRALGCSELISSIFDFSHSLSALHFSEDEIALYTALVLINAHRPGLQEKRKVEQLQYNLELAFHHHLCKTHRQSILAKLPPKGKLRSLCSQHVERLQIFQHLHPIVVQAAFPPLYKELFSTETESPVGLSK

[2] = biological target: T2, wild type human RORγt LBD (Homo sapiens, UniProt P51449); assay: RORγt (LBD) Reporter Assay (GAL4-luciferase, HEK293T cells); format: cell-based; conditions: for inhibition at 6 µM: HEK-293T, read-out: RORγt (LBD) Reporter Assay, % inhibition @ 6 µM, 6 µM compound concentration; for RORγt (LBD) Reporter Assay, % inhibition @ 6 µM: 6 µM compound concentration
T2 construct: expressed in transfected cells; host or cells: HEK293T
T2 sequence (P51449 258-518): T1 sequence (P51449 258-518)

[3] = HEK293T cells, value after the comma with ∼, > or < could not be included in the average

Compound	Kd [1] [nM]	IC50 ([2]; HEK293T cells) [nM]	inhibition at 6 µM ([2]; HEK293T cells) [%]	RORγt (LBD) Reporter Assay, % inhibition @ 6 µM ([2]; HEK293T cells) [%]	RORγt (LBD) Reporter Assay, % inhibition @ 6 µM [2] [%]	IC50 [2, 3]	inhibition at 6 µM [2] [%]
COCCN(C)c1nc2ccc(C(O)(c3ccc(Cl)cc3)c3cncn3C)cc2c(Cl)c1Cc1ccc(-n2cccn2)cc1 (centres unmarked) [Example 127, {4-Chloro-2-[(2-methoxyethyl)(methyl)amino]-3-[4-(1H-pyrazol-1-yl)benzyl]quinolin-6-yl}(4-chlorophenyl)(1-methyl-1H-imidazol-5-yl)methanol]	350	240	101				
Cc1ccc(C(O)(c2ccc3nc(N4CCC4)c(Cc4ccc(-n5cccn5)cc4)c(Cl)c3c2)c2cnnn2C)c(C)n1 (single isomer, unassigned) [Example 141c, {2-Azetidin-1-yl-4-chloro-3-[4-(1H-pyrazol-1-yl)benzyl]quinolin-6-yl}(2,6-dimethylpyridin-3-yl)(1-methyl-1H-1,2,3-triazol-5-yl)methanol]	7100	> 6000		5			
COc1nc2ccc(C(N)(c3ccc(C(F)(F)F)nc3)c3cncn3C)cc2c(Cl)c1Cc1cc2ccccc2s1 (single isomer, unassigned) [Example 71b, (3-(Benzo[b]thiophen-2-ylmethyl)-4-chloro-2-methoxyquinolin-6-yl)(1-methyl-1H-imidazol-5-yl)(6-(trifluoromethyl)pyridin-3-yl)methanamine]	32					230 nM	96
Cn1cncc1C(O)(c1ccc(C(F)(F)F)nc1)c1ccc2nc(C(F)(F)F)c(Cc3ccccc3)c(Cl)c2c1 (centres unmarked) [Example 105, (3-Benzyl-4-chloro-2-(trifluoromethyl)quinolin-6-yl)(1-methyl-1H-imidazol-5-yl)(6-(trifluoromethyl)pyridin-3-yl)methanol•TFA]	5.6					> 6000 nM	38
Cc1ccc(C(O)(c2ccc3nc(NC4CC4)c(Cc4ccc(C(F)(F)F)cc4)c(Cl)c3c2)c2cnnn2C)c(C)n1 (single isomer, unassigned) [Example 143c, {4-Chloro-2-(cyclopropylamino)-3-[4-(trifluoromethyl)benzyl]quinolin-6-yl}(2,6-dimethylpyridin-3-yl)(1-methyl-1H-1,2,3-triazol-5-yl)methanol]	2.2	~10		102			
COc1nc2ccc(C(O)(c3ccc(F)cc3)c3cccnc3)cc2c(Cl)c1Cc1ccc(-n2cccn2)cc1 (single isomer, unassigned) [Example 158c, (3-(4-(1H-Pyrazol-1-yl)benzyl)-4-chloro-2-methoxyquinolin-6-yl)(4-fluorophenyl)(pyridin-3-yl)methanol]	7.7	130		100			
Cc1ccc(C(O)(c2ccc3nc(C)c(Cc4ccc(C(F)(F)F)cc4)c(Cl)c3c2)c2cnnn2C)c(C)n1 (centres unmarked) [Example 28a, (4-Chloro-2-methyl-3-(4-(trifluoromethyl)benzyl)quinolin-6-yl)(2,6-dimethylpyridin-3-yl)(1-methyl-1H-1,2,3-triazol-5-yl)methanol]	0.25					11 nM	99
Cn1cncc1C(O)(c1ccc(C(F)(F)F)nc1)c1ccc2nc(N3CC(F)(F)C3)c(Cc3ccc(-n4cccn4)cc3)c(Cl)c2c1 (single isomer, unassigned) [Example 135b, {4-Chloro-2-(3,3-difluoroazetidin-1-yl)-3-[4-(1H-pyrazol-1-yl)benzyl]quinolin-6-yl}(1-methyl-1H-imidazol-5-yl)[6-(trifluoromethyl)pyridin-3-yl]methanol]	160	260	99				
CC(=O)N1CCC(C(O)(c2ccccc2)c2ccc3nc(Cl)c(Cc4cncnc4)c(OC(F)F)c3c2)CC1 (single isomer, unassigned) [Example 73c, 1-(4-((2-Chloro-4-(difluoromethoxy)-3-(pyrimidin-5-ylmethyl)quinolin-6-yl)(hydroxy)(phenyl)methyl)piperidin-1-yl)ethanone]	480				21	> 6000 nM	
Cc1ccc(C(O)(c2ccc3nc(NC4CC4)c(Cc4ccc(C(F)(F)F)cc4)c(Cl)c3c2)c2cnnn2C)c(C)n1 (centres unmarked) [Example 143a, {4-Chloro-2-(cyclopropylamino)-3-[4-(trifluoromethyl)benzyl]quinolin-6-yl}(2,6-dimethylpyridin-3-yl)(1-methyl-1H-1,2,3-triazol-5-yl)methanol]	7.2		101				
Cc1ccc(C(O)(c2ccc3nc(N4CCC4)c(Cc4ccc(C(F)(F)F)cc4)c(Cl)c3c2)c2cnnn2C)c(C)n1 (centres unmarked) [Example 140a, {2-Azetidin-1-yl-4-chloro-3-[4-(trifluoromethyl)benzyl]quinolin-6-yl}(2,6-dimethylpyridin-3-yl)(1-methyl-1H-1,2,3-triazol-5-yl)methanol]	0.19	22	99				
COc1ccc(C(O)(c2cccnc2)c2ccc3nc(OC)c(Cc4ccc(-n5cccn5)cc4)c(Cl)c3c2)cc1OC (centres unmarked) [Example 159a, (3-(4-(1H-Pyrazol-1-yl)benzyl)-4-chloro-2-methoxyquinolin-6-yl)(3,4-dimethoxyphenyl)(pyridin-3-yl)methanol]	29	120	107				
COc1nc2ccc(C(O)(c3ccc(C)nc3C)c3cnnn3C)cc2c(Cl)c1Cc1ccc(C)cc1 (single isomer, unassigned) [Example 20c, (4-Chloro-2-methoxy-3-(4-methylbenzyl)quinolin-6-yl)(2,6-dimethylpyridin-3-yl)(1-methyl-1H-1,2,3-triazol-5-yl)methanol]	0.62				93	57 nM and ~30 nM	

Next, values leading:

Kd [1] [nM]	IC50 ([2]; HEK293T cells) [nM]	inhibition at 6 µM ([2]; HEK293T cells) [%]	RORγt (LBD) Reporter Assay, % inhibition @ 6 µM ([2]; HEK293T cells) [%]	RORγt (LBD) Reporter Assay, % inhibition @ 6 µM [2] [%]	IC50 [2, 3]	inhibition at 6 µM [2] [%]	Compound
4.5				100	93 nM		COc1nc2ccc(C(O)(c3ccc(Cl)cc3)c3cncn3C)cc2c(C#N)c1Cc1ccc(C(F)(F)F)cc1 (single isomer, unassigned) [Example 55c, 6-((4-Chlorophenyl)(hydroxy)(1-methyl-1H-imidazol-5-yl)methyl)-2-methoxy-3-(4-(trifluoromethyl)benzyl)quinoline-4-carbonitrile]
0.91					10 nM	99	COc1nc2ccc(C(O)(c3ccc(C)nc3C)c3cnnn3C)cc2c(Cl)c1Cc1ccc(-n2cccn2)cc1 (centres unmarked) [Example 17a, (3-(4-(1H-Pyrazol-1-yl)benzyl)4-chloro-2-methoxyquinolin-6-yl)(2,6-dimethylpyridin-3-yl)(1-methyl-1H-1,2,3-triazol-5-yl)methanol]
110					130 nM	101	COc1nc2ccc(C(O)(c3cncn3C)C3CCOCC3)cc2c(C#N)c1Cc1ccc(-n2cccn2)cc1 (centres unmarked) [Example 2b, 3-(4-(1H-Pyrazol-1-yl)benzyl)-6-(hydroxy(1-methyl-1H-imidazol-5-yl)(tetrahydro-2H-pyran-4-yl)methyl)-2-methoxyquinoline-4-carbonitrile]
43					100 nM	99	COc1nc2ccc(C(O)(c3cncn3C)C3CCOCC3)cc2c(Cl)c1Cc1ccc(-n2cccn2)cc1 (single isomer, unassigned) [Example 1b, (3-(4-(1H-Pyrazol-1-yl)benzyl)-4-chloro-2-methoxyquinolin-6-yl)(1-methyl-1H-imidazol-5-yl)(tetrahydro-2H-pyran-4-yl)methanol]
1.1					3.1 nM	82	COc1nc2ccc(C(O)(c3cnnn3C)c3cnc(C)n3C)cc2c(C#N)c1Cc1ccc(F)cc1 (single isomer, unassigned) [Example 66b, 6-((1,2-Dimethyl-1H-imidazol-5-yl)(hydroxy)(1-methyl-1H-1,2,3-triazol-5-yl)methyl)-3-(4-fluorobenzyl)-2-methoxyquinoline4-carbonitrile]
200					450 nM	101	COCCOc1nc2ccc(C(O)(c3ccc(Cl)cc3)c3cncn3C)cc2c(Cl)c1Cc1ccc(-n2cccn2)cc1 (centres unmarked) [Example 56]
220	420	101					Cn1cncc1C(O)(c1ccc(C(F)(F)F)nc1)c1ccc2nc(N3CC(O)C3)c(Cc3ccc(-n4cccn4)cc3)c(Cl)c2c1 (single isomer, unassigned) [Example 134b, 1-(4-Chloro-6-{hydroxy(1-methyl-1H-imidazol-5-yl)[6-(trifluoromethyl)pyridin-3-yl]methyl}-3-[4-(1H-pyrazol-1-yl)benzyl]quinolin-2-yl)azetidin-3-ol]
2.8				100	17 nM		COc1nc2ccc(C(O)(c3cnnn3C)C3CCOCC3)cc2c(Cl)c1Cc1ccc(C(F)(F)F)cc1 (single isomer, unassigned) [Example 85c, (4-Chloro-2-methoxy-3-(4-(trifluoromethyl)benzyl)quinolin-6-yl)(1-methyl-1H-1,2,3-triazol-5-yl)(tetrahydro-2H-pyran-4-yl)methanol]
0.02				99	2.1 nM		CCc1nc2ccc(C(O)(c3cnnn3C)c3cnc(C)n3C)cc2c(Cl)c1Cc1ccc(C(F)(F)F)cc1 (single isomer, unassigned) [Example 25c, (4-Chloro-2-ethyl-3-(4-(trifluoromethyl)benzyl)quinolin-6-yl)(1,2-dimethyl-1H-imidazol-5-yl)(1-methyl-1H-1,2,3-triazol-5-yl)methanol]

Source: EP3057951B1, “METHYLENE LINKED QUINOLINYL MODULATORS OF ROR-GAMMA-T” (Janssen Pharmaceutica NV, priority 2013, dated 2015)
